Counter-ions that a name gives are not always drawn.
| SMILES | melting point |
| --- | --- |
| N#Cc1cnc2cc3c(cc2c1Nc1ccc(Oc2ccccc2)cc1)ncn3CCN1CCOCC1 [Example 58, 3-[2-(4-Morpholinyl)ethyl]-8-(4-phenoxyanilino)-3H-imidazo[4,5-g]quinoline-7-carbonitrile] | > 260 °C |
| COc1cc2cc3ncc(C#N)c(Nc4cc(OC)c(OC)c(OC)c4)c3cc2cc1OCCN1CCOCC1 | 135 to 138 °C (dec.) |
| COc1cc(Nc2c(C#N)cnc3cc4cc(OCCN5CCOCC5)c(OC)cc4cc23)c(Cl)cc1F | 206 to 222 °C |
| COc1ccc2cc3ncc(C#N)c(Nc4ccc(Cl)cc4Cl)c3cc2c1 [Example 103, 4-(2,4-Dichloroanilino)-7-methoxybenzo[g]quinoline-3-carbonitrile] | 215 to 217 °C |
| N#Cc1cnc2cc3cc(O)c(O)cc3cc2c1Nc1ccc(Cl)cc1Cl [Example 15, 4-(2,4-Dichloroanilino)-7,8-dihydroxybenzo[g]quinoline-3-carbonitrile] | > 260 °C |
| COc1cc2cc3c(Nc4ccc(F)c(Cl)c4)c(C#N)cnc3cc2cc1OCCCl [Example 185, 8-(2-Chloroethoxy)-4-(3-chloro-4-fluoroanilino)-7-methoxybenzo[g]quinoline-3-carbonitrile] | 137 to 159 °C |
| N#Cc1cnc2c(c1Nc1ccc(Oc3ccccc3)cc1)C=C1N=C(N)N=C1C2 [Example 34, 2-Amino-8-(4-phenoxyanilino)imidazo[4,5-g]quinoline-7-carbonitrile] | > 300 °C |
| N#Cc1cnc2c(oc3ccccc32)c1Nc1ccc(Cl)cc1F [Example 86, 4-(4-Chloro-2-fluorophenylamino)benzo[4,5]furo[3,2-b]pyridine-3-carbonitrile] | 259 to 261 °C |
| COc1cc2cc3c(Nc4ccc(Sc5nccn5C)c(Cl)c4)c(C#N)cnc3nc2cc1OCCCl [Example 174, 8-(2-Chloroethoxy)-4-{3-chloro-4-[(1-methyl-1H-imidazol-2-yl)sulfanyl]anilino}-7-methoxybenzo[b][1,8]naphthyridine-3-carbonitrile] | > 250 °C (dec.) |
| COc1cc2cc3ncc(C#N)c(Nc4ccc(Cl)cc4Cl)c3cc2cc1OC [Example 14, 4-(2,4-Dichloroanilino)-7,8-dimethoxybenzo[g]quinoline-3-carbonitrile] | 271 to 273 °C |
| COc1cc2cc3c(Nc4ccc(Sc5nccn5C)c(Cl)c4)c(C#N)cnc3cc2cc1OCCn1ccnn1 [Example 154, 4-[3-Chloro-4-(1-methyl-1H-imidazol-2-ylsulfanyl)phenylamino]-7-methoxy-8-(2-[1,2,3]triazol-1-yl-ethoxy)benzo[g]quinoline-3-carbonitrile] | 201 to 207 °C |
| C=CC(=O)Nc1ccc2sc3c(Nc4cccc(Br)c4)c(C#N)cnc3c2c1 [Example 93, N-[4-(3-Bromoanilino)-3-cyano[1]benzothieno[3,2-b]pyridin-8-yl]acrylamide] | > 300 °C (dec.) |
| COc1cc(Nc2c(C#N)cnc3c2C=C2N=C(CN4CCOCC4)N=C2C3)cc(OC)c1OC [Example 48, 2-(4-Morpholinylmethyl)-8-(3,4,5-trimethoxyanilino)imidazo[4,5-g]quinoline-7-carbonitrile] | 258 to 260 °C (dec.) |
| COc1cc(Nc2c(C#N)cnc3cc4ccccc4cc23)c(C)cc1Cl [Example 5, 4-(4-Chloro-5-methoxy-2-methylanilino)benzo[g]quinoline-3-carbonitrile] | 195 to 197 °C |
| COc1cc(Nc2c(C#N)cnc3cc4cc(OCCCl)c(OC)cc4cc23)c(Cl)cc1C [Example 182, 8-(2-Chloroethoxy)-4-(2-chloro-5-methoxy-4-methylphenylamino)-7-methoxybenzo[g]quinoline-3-carbonitrile] | 222 to 236 °C |
| COc1cc2cc3ncc(C#N)c(Nc4ccc(Oc5ccccc5)cc4)c3cc2cc1OC (as salt: salt) [Example 11, 7,8-Dimethoxy-4-(4-phenoxyanilino)benzo[g]quinoline-3-carbonitrile] | > 265 °C |
| N#Cc1cnc2c(sc3ccc(N)cc32)c1Nc1cccc(Br)c1 [Example 92, 8-Amino-4-(3-bromoanilino)-[1]benzothieno[3,2-b]pyridine-3-carbonitrile] | 295 to 300 °C (dec.) |
| COc1cc2cc3ncc(C#N)c(Nc4cc(OC)c(OC)c(OC)c4)c3cc2cc1OCCN1CCN(C)CC1 | 115 to 120 °C (dec.) |
| COc1cc(Nc2c(C#N)cnc3cc4cc(OCCCl)c(OC)cc4cc23)c(Cl)cc1Cl [Example 126, 4-(2,4-dichloro-5-methoxyanilino)-7-methoxy-8-(chloroethoxy)benzo[g]quinoline-3-carbonitrile] | 239 to 255 °C (dec.) |
| COc1cc(Nc2c(C#N)cnc3cc4cc(OC)c(OC)cc4cc23)c(C)cc1Cl | 171 to 173 °C |

| SMILES | melting point |
| --- | --- |
| Cc1ccc(Nc2c(C#N)cnc3c2oc2ccccc23)cc1O [Example 87, 4-(3-Hydroxy-4-methylphenylamino)benzo[4,5]furo[3,2-b]pyridine-3-carbonitrile] | 240 °C (dec.) |
| COc1cc(Nc2c(C#N)cnc3cc4cc(OCCN5CCC(O)CC5)c(OC)cc4cc23)c(Cl)cc1C | 210 to 215 °C |
| COc1cc(Nc2c(C#N)cnc3nc4cc(OCCN5CCN(C)CC5)c(OC)cc4cc23)c(Cl)cc1Cl [Example 175, 4-(2,4-Dichloro-5-methoxyanilino)-7-methoxy-8-[2-(4-methyl-1-piperazinyl)ethoxy]benzo[b][1,8]naphthyridine-3-carbonitrile] | 240 to 243 °C (dec.) |
| N#Cc1cnc2cc3ccccc3cc2c1Nc1ccc(F)c(Cl)c1 [Example 4, 4-(3-Chloro-4-fluoroanilino)benzo[g]quinoline-3-carbonitrile] | 257 to 259 °C |
| COc1cc2cc3c(Nc4ccc(Cl)cc4Cl)c(C#N)cnc3nc2cc1OC [Example 177, 4-(2,4-Dichloroanilino)-7,8-dimethoxybenzo[b][1,8]naphthyridine-3-carbonitrile] | 266 to 270 °C (dec.) |
| N#Cc1cnc2c(oc3ccccc32)c1Oc1ccc(Cl)cc1F [Example 89, 4-(4-Chloro-2-fluorophenoxy)-benzo[4,5]furo[3,2-b]pyridine-3-carbonitrile] | 138 to 140 °C |
| N#Cc1cnc2c(sc3ccc([N+](=O)[O-])cc32)c1Nc1cccc(Br)c1 [Example 91, 4-(3-Bromoanilino)-8-nitro[1]benzothieno[3,2-b]pyridine-3-carbonitrile] | > 300 °C |
| N#Cc1cnc2cc3ccc(O)cc3cc2c1Nc1ccc(Cl)cc1Cl [Example 105, 4-(2,4-Dichloroanilino)-7-hydroxybenzo[g]quinoline-3-carbonitrile] | > 300 °C |
| COc1cc2cc3c(Nc4cc(OC)c(OC)c(OC)c4)c(C#N)cnc3nc2cc1OC [Example 178, 7,8-Dimethoxy-4-(3,4,5-trimethoxyanilino)benzo[b][1,8]naphthyridine-3-carbonitrile] | 250 to 252 °C (dec.) |
| COc1cc2cc3c(Nc4ccc(F)c(Cl)c4)c(C#N)cnc3cc2cc1OCCN1CCOCC1 [Example 205, 4-(3-Chloro-4-fluoroanilino)-7-methoxy-8-[2-(4-morpholinyl)ethoxy]benzo[g]quinoline-3-carbonitrile] | 237 to 242 °C |
| COc1cc2cc3c(Nc4cc(OC)c(Cl)cc4Cl)c(C#N)cnc3cc2cc1O [Example 155, 4-(2,4-Dichloro-5-methoxyphenylamino)-8-hydroxy-7-methoxybenzo[g]quinoline-3-carbonitrile] | 238 to 240 °C |
| N#Cc1cnc2c(sc3ccccc32)c1Nc1ccc(Cl)cc1F [Example 66, 4-(4-Chloro-2-fluorophenylamino)benzo[4,5]thieno[3,2-b]pyridine-3-carbonitrile] | 250 to 251 °C |
| COc1ccc(C)c(Nc2c(C#N)cnc3c2C=C2N=C(NCCN4CCOCC4)N=C2C3)c1 [Example 31, 8-(5-Methoxy-2-methylanilino)-2-{[2-(4-morpholinyl)ethyl]amino}imidazo [4,5-g]quinoline-7-carbonitrile] | 148 to 150 °C |
| COc1cc(Nc2c(C#N)cnc3cc4cc(OC)c(OCCN5CCC(O)CC5)cc4cc23)c(Cl)cc1Cl | 150 to 160 °C |
| COc1cc2cc3ncc(C#N)c(Nc4ccc(F)c(Cl)c4)c3cc2cc1OC (as salt: salt) [Example 13, 4-(3-Chloro-4-fluoroanilino)-7,8-dimethoxybenzo[g]quinoline-3-carbonitrile] | > 280 °C |
| CCOC(=O)CN(CCOc1cc2cc3ncc(C#N)c(Nc4cc(OC)c(Cl)cc4C)c3cc2cc1OCC)CC(=O)OCC [Example 193, ({2-[4-(4-Chloro-5-methoxy-2-methylphenylamino)-3-cyano-7-ethoxybenzo[g]quinoline-8-yloxy]-ethyl}-ethoxycarbonylmethylamino)-acetic acid ethyl ester] | 85 to 86 °C |
| CN(C)CCOc1ccc2cc3ncc(C#N)c(Nc4ccc(Cl)cc4Cl)c3cc2c1 [Example 107, 4-(2,4-Dichloroanilino)-7-[2-(dimethylamino)ethoxy]benzo[g]quinoline-3-carbonitrile] | 115 to 117 °C |
| COc1cc2cc3c(Nc4ccc(Sc5nccn5C)c(Cl)c4)c(C#N)cnc3nc2cc1OCCN1CCOCC1 [Example 176, 4-{3-Chloro-4-[(1-methyl-1H-imidazol-2-yl)sulfanyl]anilino}-7-methoxy-8-[2-(4-morpholinyl)ethoxy]benzo[b][1,8]naphthyridine-3-carbonitrile] | 160 to 162 °C (dec.) |
| COc1cc(Nc2c(C#N)cnc3cc4cc(OCCCl)c(OC)cc4cc23)c(C)cc1Cl [Example 122, 4-(4-chloro-5-methoxy-2-methylanilino)-7-methoxy-8-(chloroethoxy)benzo[g]quinoline-3-carbonitrile] | 132 to 168 °C (dec.) |
| CCOC(=O)CN(CCOc1cc2cc3c(Nc4cc(OC)c(Cl)cc4C)c(C#N)cnc3cc2cc1OCC)CC(=O)OCC [Example 192, ({2[4-(4-Chloro-5-methoxy-2-methylphenylamino)-3-cyano-8-ethoxybenzo[g]quinoline-7-yloxy]-ethyl}-ethoxycarbonylmethyl-amino)-acetic acid ethyl ester] | 70 to 71 °C |

Source: US7105531B2, “Tricyclic protein kinase inhibitors” (WYETH, priority 1999, dated 2006)
